This note sets out measurements from patent US8716282B2, “Imidazo[1,2-b]pyridazine derivatives and their use as PDE10 inhibitors” (Janssen Pharmaceutica NV, priority 2009, dated 2014).

For experiment [1], the system named is apomorphine-induced stereotypy in rats. The experiment is described as follows: Apomorphine-induced stereotypy in rats (APO). The note with it: n.d. = found not active at threshold dose 2.5 mg/kg, or 10 mg/kg if (a). Type of experiment: in vivo, rat. The protocol:
Apomorphine (1.0 mg/kg, i.v.)-induced stereotypy (compulsive sniffing, licking, chewing) was scored every 5 min over the first hour after injection of apomorphine, following a 1 hour interval pre-treatment with the test compound. The score system was: (3) pronounced, (2) moderate, (1) slight, and (0) absent.

In experiment [2] the target is T1, Rat recombinant PDE10A (rPDE10A2) (Rattus norvegicus, UniProt Q9QYJ6).
T1 construct: inferred from metal chelate purification; made in house; host or cells: Sf9 insect cells, baculovirus
T1 sequence (Q9QYJ6 1-794): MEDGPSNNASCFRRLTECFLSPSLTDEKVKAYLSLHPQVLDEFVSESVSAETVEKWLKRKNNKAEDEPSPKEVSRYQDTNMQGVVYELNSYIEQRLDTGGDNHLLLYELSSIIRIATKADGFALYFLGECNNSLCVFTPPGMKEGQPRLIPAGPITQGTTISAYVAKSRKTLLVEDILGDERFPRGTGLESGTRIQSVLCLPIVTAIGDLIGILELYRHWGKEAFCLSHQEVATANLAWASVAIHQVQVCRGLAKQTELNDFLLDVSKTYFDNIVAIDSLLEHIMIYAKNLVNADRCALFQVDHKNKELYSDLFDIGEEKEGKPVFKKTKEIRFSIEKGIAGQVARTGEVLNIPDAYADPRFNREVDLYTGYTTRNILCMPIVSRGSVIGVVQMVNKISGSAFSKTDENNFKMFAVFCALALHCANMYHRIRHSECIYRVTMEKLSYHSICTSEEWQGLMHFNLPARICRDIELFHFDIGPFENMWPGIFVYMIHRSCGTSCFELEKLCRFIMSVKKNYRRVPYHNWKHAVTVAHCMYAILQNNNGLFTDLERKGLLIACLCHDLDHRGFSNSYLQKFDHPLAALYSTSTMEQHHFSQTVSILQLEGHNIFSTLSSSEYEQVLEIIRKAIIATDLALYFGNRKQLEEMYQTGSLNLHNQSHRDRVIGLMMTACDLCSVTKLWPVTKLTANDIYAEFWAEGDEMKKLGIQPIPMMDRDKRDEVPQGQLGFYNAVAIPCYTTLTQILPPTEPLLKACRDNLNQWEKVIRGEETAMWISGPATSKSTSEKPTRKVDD
The experiment is described as follows: In vitro assay PDE10A (SPA, 3H-cAMP). Type of experiment: biochemical. The note with it: Table 3; −log IC50 expressed in mol/L. As to the method: Rat recombinant PDE10A (rPDE10A2) was expressed in Sf9 cells using a recombinant rPDE10A baculovirus construct. Cells were harvested after 48 h of infection and the rPDE10A protein was purified by metal chelate chromatography on Ni-sepharose 6FF. Tested compounds were dissolved and diluted in 100% DMSO to a concentration 100 fold of the final concentration in the assay. […] 10 μl of rPDE10A enzyme in incubation buffer was added and the reaction was started by addition of 10 μl substrate to a final concentration of 60 nM cAMP and 0.008 μCi ^3H-cAMP. The reaction was incubated for 60 minutes at room temperature. […] After sedimentation of the beads during 30 minutes the radioactivity was measured in a Perkin Elmer Topcount scintillation counter and results were expressed as cpm. For blanc values the enzyme was omitted from the reaction and replaced by incubation buffer. Control values were obtained by addition of a final concentration of 1% DMSO instead of compound. The same assay principle is applied for the measurement of the affinity of the compound for other members of the PDE family with appropriate modifications in incubation buffer, substrate concentration, incubation time and stop solution.

As for `COCCOc1cncc(-c2c(C)nc3c(-c4ccncc4)ccnn23)c1` [Compound 149, 3-[5-(2-methoxyethoxy)-3-pyridinyl]-2-methyl-8-(4-pyridinyl)-imidazo[1,2-b]pyridazine], the “APO ED50 (mg/kg)” value in experiment [1] was “n.d. (n.d. means the compound was found not active at 2.5 or at 10 mg/kg (the latter being indicated as (a)), taken as threshold value, and was not further tested.)”. For the same compound, the “PDE10A2 pIC50” value in experiment [2] is reported as 6.82.
